According to patent US20100298141A1, “SUBSTITUTED PYRIDINE N-OXIDE HERBICIDES” (E. I. DU PONT DE NEMOURS AND COMPANY, priority 2007, published 2010):

Legend:
redroot pigweed = assay: Test A pre-/postemergence greenhouse test; assay type: in vivo, Amaranthus retroflexus; details: for Plant response rating, Pigweed: 0 to 100 scale where 0 is no effect and 100 is complete control; for Pigweed plant response rating: 0 to 100 scale
How it was run: (§1)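 Pre: directed soil spray on seeded loam/sand. Post: foliar spray, plants 2–10 cm, 1–2 leaf stage, applied concurrently. Vehicle: non-phytotoxic solvent + surfactant. Greenhouse ~10 d; visual injury rating vs untreated controls.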

velvetleaf [1] = assay: Test A pre-/postemergence greenhouse test; assay type: in vivo, Abutilon theophrasti; details: for Plant response rating, Velvetleaf: 0 to 100 scale where 0 is no effect and 100 is complete control; for Velvetleaf plant response rating: 0 to 100 scale
How it was run: as §1

wheat [2] = assay: Test A pre-/postemergence greenhouse test; assay type: in vivo, Triticum aestivum; details: for Plant response rating, Wheat: 0 to 100 scale where 0 is no effect and 100 is complete control; for Wheat plant response rating: 0 to 100 scale
How it was run: as §1

downy brome = assay: Test C pre-/postemergence test; assay type: in vivo, Bromus tectorum
How it was run: (§2)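 Seeds were planted and treated preemergence with test chemical in a non-phytotoxic solvent mixture containing surfactant. Postemergence applications of the same formulation went onto plants 2 to 18 cm tall (1- to 4-leaf stage). A dash marks no test result.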

wheat [3] = assay: Test C pre-/postemergence test; assay type: in vivo, Triticum aestivum
How it was run: as §2

wild oat = assay: Test C pre-/postemergence test; assay type: in vivo, Avena fatua
How it was run: as §2

corn = assay: Test C pre-/postemergence test; assay type: in vivo, Zea mays
How it was run: as §2

woolly cupgrass = assay: Test C pre-/postemergence test; assay type: in vivo, Eriochloa villosa
How it was run: as §2

giant foxtail = assay: Test C pre-/postemergence test; assay type: in vivo, Setaria faberii
How it was run: as §2

johnsongrass = assay: Test C pre-/postemergence test; assay type: in vivo, Sorghum halepense
How it was run: as §2

morningglory = assay: Test C pre-/postemergence test; assay type: in vivo, Ipomoea coccinea
How it was run: as §2

eastern black nightshade = assay: Test C pre-/postemergence test; assay type: in vivo, Solanum ptycanthum
Excerpt: Seeds of plant species selected from blackgrass (Alopecurus myosuroides), downy brome (Bromus tectorum), green foxtail (Setaria viridis), Italian ryegrass (Lolium multiflorum), wheat (Triticum aestivum), wild oat (Avena fatua), catchweed bedstraw (Galium aparine), Russian thistle (Salsola kali), […] (Cynodon dactylon), Surinam grass (Brachiaria decumbens), cocklebur (Xanthium strumarium), corn (Zea mays), crabgrass (Digitaria sanguinalis), woolly cupgrass (Eriochloa villosa), giant foxtail (Setaria faberii), Goosegrass (Eleusin indica), johnsongrass (Sorghum halepense), kochia (Kochia scoparia), lambsquarters (Chenopodium album), morningglory (Ipomoea coccinea), eastern black nightshade (Solanum ptycanthum), yellow nutsedge (Cyperus esculentus), pigweed (Amaranthus retroflexus), common ragweed (Ambrosia elation), soybean (Glycine max), common (oilseed) sunflower (Helianthus annuus), and velvetleaf (Abutilon theophrasti) were planted and treated preemergence with test chemicals formulated in a non-phytotoxic solvent mixture which included a surfactant. At the same time, plants selected from these crop and weed species and also winter barley (Hordeum vulgare), canarygrass (Phalaris minor), and chickweed (Stellaria media) were treated with postemergence applications of some of the test chemicals formulated in the same manner. Plants ranged in height from 2 to 18 cm (1- to 4-leaf stage) for postemergence treatments. […] At time of treatment, test pots were flooded to 3 cm above the soil surface, treated by application of test compounds directly to the paddy water, and then maintained at that water depth for the duration of the test. […] A dash (-) response means no test result.

yellow nutsedge = assay: Test C pre-/postemergence test; assay type: in vivo, Cyperus esculentus
How it was run: as §2

velvetleaf [4] = assay: Test C pre-/postemergence test; assay type: in vivo, Abutilon theophrasti
How it was run: as §2

rice = assay: Test C flooded paddy test; assay type: in vivo, Oryza sativa; details: Flood
How it was run: (§3)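 Visual injury ratings against untreated controls, taken 13 to 15 days after compound was added to paddy water standing 3 cm above the soil.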

duck salad = assay: Test C flooded paddy test; assay type: in vivo, Heteranthera limosa; details: Flood
How it was run: as §3

[5] = Postemergence, 500 g ai/ha, 0 is no effect, 100 is complete control
[6] = Preemergence, 125 g ai/ha, 0 no effect, 100 complete control
[7] = 62 g ai/ha, Preemergence, scale 0 to 100
[8] = 125 g ai/ha, preemergence, scale 0 (no effect) to 100 (complete control)
[9] = preemergence, 250 g ai/ha, scale 0 (no effect) to 100 (complete control)
[10] = Preemergence, 31 g ai/ha, scale 0 to 100 (0 no effect, 100 complete control)
[11] = 62 g ai/ha, scale 0 to 100 (0 no effect, 100 complete control)
[12] = 250 g ai/ha, scale 0 to 100, 0 no effect, 100 complete control, 13 to 15 days

Cc1cc([S+]([O-])Cc2c(C(F)(F)F)nn(C)c2OCC(F)(F)F)[n+]([O-])cc1Cl (stereo not shown) [Compound 70]
Plant response rating, Pigweed (redroot pigweed; Postemergence, 125 g ai/ha): 40
Pigweed plant response rating (redroot pigweed; [5]): 80
Pigweed plant response rating (redroot pigweed; [6]): 90
Plant response rating, Pigweed (redroot pigweed; Preemergence, 500 g ai/ha): 100
Plant response rating, Velvetleaf (velvetleaf [1]; Postemergence, 125 g ai/ha): 60
Velvetleaf plant response rating (velvetleaf [1]; [5]): 70
Velvetleaf plant response rating (velvetleaf [1]; [6]): 40
Plant response rating, Velvetleaf (velvetleaf [1]; Preemergence, 500 g ai/ha): 100
Plant response rating, Wheat (wheat [2]; Postemergence, 125 g ai/ha): 70
Wheat plant response rating (wheat [2]; [5]): 70
Wheat plant response rating (wheat [2]; [6]): 50
Plant response rating, Wheat (wheat [2]; Preemergence, 500 g ai/ha): 90
Bromegrass, Downy plant response rating (downy brome; [7]): 80
Bromegrass, Downy plant response rating (downy brome; [8]): 100
Bromegrass, Downy plant response rating (downy brome; [9]): 100
Wheat plant response rating (wheat [3]; [7]): 60
Wheat plant response rating (wheat [3]; [8]): 95
Plant response rating, Wheat (wheat [3]; [10]): 15
Wheat plant response rating (wheat [3]; [9]): 95
Oat, Wild plant response rating (wild oat; [7]): 95
Oat, Wild plant response rating (wild oat; [8]): 100
Plant response rating, Oat, Wild (wild oat; [10]): 70
Oat, Wild plant response rating (wild oat; [9]): 100
Corn plant response rating (corn; [7]): 95
Corn plant response rating (corn; [8]): 98
Plant response rating, Corn (corn; [10]): 50
Corn plant response rating (corn; [9]): 100
Cupgrass, Woolly plant response rating (woolly cupgrass; [7]): 98
Cupgrass, Woolly plant response rating (woolly cupgrass; [8]): 100
Plant response rating, Cupgrass, Woolly (woolly cupgrass; [10]): 95
Cupgrass, Woolly plant response rating (woolly cupgrass; [9]): 100
Foxtail, Giant plant response rating (giant foxtail; [7]): 100
Plant response rating, Foxtail, Giant (giant foxtail; [10]): 90
Foxtail, Giant plant response rating (giant foxtail; [9]): 100
Johnsongrass plant response rating (johnsongrass; [7]): 100
Johnsongrass plant response rating (johnsongrass; [8]): 100
Plant response rating, Johnsongrass (johnsongrass; [10]): 70
Johnsongrass plant response rating (johnsongrass; [9]): 100
Morningglory plant response rating (morningglory; [7]): 80
Morningglory plant response rating (morningglory; [8]): 100
Plant response rating, Morningglory (morningglory; [10]): 0
Morningglory plant response rating (morningglory; [9]): 100
Nightshade plant response rating (eastern black nightshade; [7]): 100
Nightshade plant response rating (eastern black nightshade; [8]): 100
Plant response rating, Nightshade (eastern black nightshade; [10]): 100
Nightshade plant response rating (eastern black nightshade; [9]): 100
Nutsedge, Yellow plant response rating (yellow nutsedge; [7]): 65
Nutsedge, Yellow plant response rating (yellow nutsedge; [8]): 65
Plant response rating, Nutsedge, Yellow (yellow nutsedge; [10]): 60
Nutsedge, Yellow plant response rating (yellow nutsedge; [9]): 95
Velvetleaf plant response rating (velvetleaf [4]; [7]): 85
Velvetleaf plant response rating (velvetleaf [4]; [8]): 100
Plant response rating, Velvetleaf (velvetleaf [4]; [10]): 35
Velvetleaf plant response rating (velvetleaf [4]; [9]): 100
Plant response rating, Rice (rice; [11]): 45
Plant response rating, Rice (rice; [12]): 90
Plant response rating, Ducksalad (duck salad; [11]): 85
Plant response rating, Ducksalad (duck salad; [12]): 100
